Usually IC50 stands for the concentration that inhibits the measured activity by half. Low readings indicate inhibition by little substance, high ones a need for much substance.

24 compounds from patent publication US20100286181A1, “PYRROLE DERIVATIVES WITH ANTIBACTERIAL ACTIVITY” (ASTRAZENECA AB, priority 2006, published 2010) can be followed below.

A value given as a limit tells only on which side of the number the result lay.

The target in this assay is GyrB ATPase activity (E. coli GyrA, E. coli GyrB) (Escherichia coli, UniProt P0AES6). Briefly: GyrB ATPase inhibition activity assay (ammonium molybdate/malachite green phosphate detection). The assay is classed as biochemical. Conditions: figure quoted may be an average of two or more results. As to the method: Compounds may be tested for inhibition of GyrB ATPase activity using an ammonium molybdate/malachite green-based phosphate detection assay (Lanzetta, P. A., L. J. Alvarez, P. S. Reinach, and O. A. Candia, 1979, 100: 95-97). Assays can be performed in multiwell plates in 100 μl reactions containing: 50 mM HEPES buffer pH 7.5, 75 mM ammonium acetate, 5.5 mM magnesium chloride, 0.5 mM ethylenediaminetetraacetic acid, 5% glycerol, 1 mM 1,4-Dithio-DL-threitol, 200 nM bovine serum albumin, 5 μg/ml sheared salmon sperm DNA, 2.5 nM E. coli GyrA, 2.5 nM E. coli GyrB, 250 μM ATP, and compound in dimethylsulfoxide. Reactions can be quenched with 150 μl of ammonium molybdate/malachite green detection reagent containing 1.2 mM malachite green hydrochloride, 8.5 mM ammonium molybdate tetrahydrate, and 1 M hydrochloric acid.
Compounds of the Examples could be expected to have IC50 values of <200 μg/ml in one or both assays described herein above. For Example the following results were obtained in a GyrB ATPase inhibition activity assay substantially similar to the above wherein the figure quoted may be an average of two or more results
The compound `Cc1cn([C@@H]2CN(c3ncc(C(=O)O)s3)CC[C@@H]2NC(=O)c2[nH]c(C)c(Cl)c2Cl)nn1` (racemic) [Example 122, cis(±)2-[4-{[(3,4-Dichloro-5-methyl-1H-pyrrol-2-yl)carbonyl]amino}-3-(4-methyl-1H-1,2,3-triazol-1-yl)piperidin-1-yl]-1,3-thiazole-5-carboxylic acid] registered an IC50 of less than 9.77 nM.
The figure for `COC(=O)c1cnc(N2CC[C@H](NC(=O)c3[nH]c(C)c(Cl)c3Cl)[C@H](n3ccnn3)C2)s1` (racemic) [Example 126, cis(±)Methyl 2-[4-{[(3,4-dichloro-5-methyl-1H-pyrrol-2-yl)carbonyl]amino}-3-(1H-1,2,3-triazol-1-yl)piperidin-1-yl]-1,3-thiazole-5-carboxylate] is 32.7 nM; for `COC(=O)c1sc(N2CCC(NC(=O)c3[nH]c(C)c(Cl)c3Cl)C3(C2)OCCO3)nc1C(C)=O` (stereo not drawn) [Example 2, Methyl 4-acetyl-2-(10-{[(3,4-dichloro-5-methyl-1H-pyrrol-2-yl)carbonyl]amino}-1,4-dioxa-7-azaspiro[4.5]dec-7-yl)-1,3-thiazole-5-carboxylate] it is 487 nM; for `CNC(=O)c1nc(N2CCC(NC(=O)c3[nH]c(C)c(Cl)c3Cl)C3(C2)OCCO3)sc1C(=O)OC(C)C` (stereo not drawn) [Example 3, Isopropyl 2-(10-{[(3,4-dichloro-5-methyl-1H-pyrrol-2-yl)carbonyl]amino}-1,4-dioxa-7-azaspiro[4.5]dec-7-yl)-4-[(methylamino)carbonyl]-1,3-thiazole-5-carboxylate] it is 270 nM.
On to `CCOC(=O)c1sc(N2CCC(NC(=O)c3[nH]c(C)c(Cl)c3Cl)C3(C2)OCCO3)nc1C(=O)NCCOC` (stereo not drawn) [Example 5, Ethyl 2-(10-{[(3,4-dichloro-5-methyl-1H-pyrrol-2-yl)carbonyl]amino}-1,4-dioxa-7-azaspiro[4.5]dec-7-yl)-4-{[(2-methoxyethyl)amino]carbonyl}-1,3-thiazole-5-carboxylate], for which the IC50 came out at 226 nM.
In the case of `COC(=O)c1cnc(N2CCC(NC(=O)c3[nH]c(C)c(Cl)c3Cl)C3(C2)OCCCO3)s1` (stereo not drawn) [Example 6, Methyl 2-(11-{[(3,4-dichloro-5-methyl-1H-pyrrol-2-yl)carbonyl]amino}-1,5-dioxa-8-azaspiro[5.5]undec-8-yl)-1,3-thiazole-5-carboxylate], the IC50 is 79.1 nM.
The figure for `CCOC(=O)c1sc(N2CCC(NC(=O)c3[nH]c(C)c(Cl)c3Cl)C3(C2)OCCCO3)nc1C(=O)NCCOC` (stereo not drawn) [Example 7, Ethyl 2-(11-{[(3,4-dichloro-5-methyl-1H-pyrrol-2-yl)carbonyl]amino}-1,5-dioxa-8-azaspiro[5.5]undec-8-yl)-4-{[(2-methoxyethyl)amino]carbonyl}-1,3-thiazole-5-carboxylate] is 18.5 nM; for `CNC(=O)c1nc(N2CCC(NC(=O)c3[nH]c(C)c(Cl)c3Cl)C3(C2)OCCCO3)sc1C(=O)OC(C)C` (stereo not drawn) [Example 8, Isopropyl 2-(11-{[(3,4-dichloro-5-methyl-1H-pyrrol-2-yl)carbonyl]amino}-1,5-dioxa-8-azaspiro[5.5]undec-8-yl)-4-[(methylamino)carbonyl]-1,3-thiazole-5-carboxylate] it is 73.6 nM; for `COC(=O)c1sc(N2CCC(NC(=O)c3[nH]c(C)c(Cl)c3Cl)C3(C2)OCCCO3)nc1C(C)=O` (stereo not drawn) [Example 9, Methyl 4-acetyl-2-(11-{[(3,4-dichloro-5-methyl-1H-pyrrol-2-yl)carbonyl]amino}-1,5-dioxa-8-azaspiro[5.5]undec-8-yl)-1,3-thiazole-5-carboxylate] it is 52.2 nM.
To `COC(=O)c1cnc(N2CCC(NC(=O)c3[nH]c(C)c(Cl)c3Cl)C(OC)(OC)C2)s1` (stereo not drawn) [Example 10, Methyl 2-(4-{[(3,4-dichloro-5-methyl-1H-pyrrol-2-yl)carbonyl]amino}-3,3-dimethoxypiperidin-1-yl)-1,3-thiazole-5-carboxylate] belongs 169 nM.
Consider `Cc1[nH]c(C(=O)NC2CCN(c3ncc(C(=O)O)s3)CC23OCCO3)c(Cl)c1Cl` (stereo not drawn) [Example 11, 2-(10-{[(3,4-Dichloro-5-methyl-1H-pyrrol-2-yl)carbonyl]amino}-1,4-dioxa-7-azaspiro[4.5]dec-7-yl)-1,3-thiazole-5-carboxylic acid], for which it took 17.8 nM to reach half-maximal inhibition (IC50).
The figure for `CC(=O)c1nc(N2CCC(NC(=O)c3[nH]c(C)c(Cl)c3Cl)C3(C2)OCCO3)sc1C(=O)O` (stereo not drawn) [Example 12, 4-Acetyl-2-(10-{[(3,4-dichloro-5-methyl-1H-pyrrol-2-yl)carbonyl]amino}-1,4-dioxa-7-azaspiro[4.5]dec-7-yl)-1,3-thiazole-5-carboxylic acid] is less than 83.1 nM; for `CNC(=O)c1nc(N2CCC(NC(=O)c3[nH]c(C)c(Cl)c3Cl)C3(C2)OCCO3)sc1C(=O)O` (stereo not drawn) [Example 13, 2-(10-{[(3,4-Dichloro-5-methyl-1H-pyrrol-2-yl)carbonyl]amino}-1,4-dioxa-7-azaspiro[4.5]dec-7-yl)-4-[(methylamino)carbonyl]-1,3-thiazole-5-carboxylic acid] it is less than 69 nM; for `COCCNC(=O)c1nc(N2CCC(NC(=O)c3[nH]c(C)c(Cl)c3Cl)C3(C2)OCCO3)sc1C(=O)O` (stereo not drawn) [Example 14, 2-(10-{[(3,4-Dichloro-5-methyl-1H-pyrrol-2-yl)carbonyl]amino}-1,4-dioxa-7-azaspiro[4.5]dec-7-yl)-4-{[(2-methoxyethyl)amino]carbonyl}-1,3-thiazole-5-carboxylic acid] it is less than 9.77 nM.
To `COCCNC(=O)c1nc(N2CCC(NC(=O)c3[nH]c(C)c(Cl)c3Cl)C3(C2)OCCCO3)sc1C(=O)O` (stereo not drawn) [Example 17, 2-(11-{[(3,4-Dichloro-5-methyl-1H-pyrrol-2-yl)carbonyl]amino}-1,5-dioxa-8-azaspiro[5.5]undec-8-yl)-4-{[(2-methoxyethyl)amino]carbonyl}-1,3-thiazole-5-carboxylic acid] belongs less than 9.77 nM; to `CC(=O)c1nc(N2CCC(NC(=O)c3[nH]c(C)c(Cl)c3Cl)C3(C2)OCCCO3)sc1C(=O)O` (stereo not drawn) [Example 19, 4-Acetyl-2-(11-{[(3,4-dichloro-5-methyl-1H-pyrrol-2-yl)carbonyl]amino}-1,5-dioxa-8-azaspiro[5.5]undec-8-yl)-1,3-thiazole-5-carboxylic acid], less than 9.77 nM; to `COCCNC(=O)c1nc(N2CCC(NC(=O)c3[nH]c(C)c(Cl)c3Cl)/C(=N/OC)C2)sc1C(=O)O` (stereo not drawn) [Example 23, 2-[(3E)-4-{[(3,4-Dichloro-5-methyl-1H-pyrrol-2-yl)carbonyl]amino}-3-(methoxyimino)piperidin-1-yl]-4-{[(2-methoxyethyl)amino]carbonyl}-1,3-thiazole-5-carboxylic acid], less than 9.77 nM.
As for `CO/N=C1\CN(c2nc(-c3ncnn3C)c(C(=O)O)s2)CCC1NC(=O)c1[nH]c(C)c(Cl)c1Cl` (stereo not drawn) [Example 25, 2-[(3E)-4-{[(3,4-Dichloro-5-methyl-1H-pyrrol-2-yl)carbonyl]amino}-3-(methoxyimino)piperidin-1-yl]-4-(1-methyl-1H-1,2,4-triazol-5-yl)-1,3-thiazole-5-carboxylic acid], the IC50 was less than 9.77 nM.
`CNC(=O)c1nc(N2CCC(NC(=O)c3[nH]c(C)c(Cl)c3Cl)/C(=N/OC)C2)sc1C(=O)O` (stereo not drawn) [Example 26, 2-[(3E)-4-{[(3,4-Dichloro-5-methyl-1H-pyrrol-2-yl)carbonyl]amino}-3-(methoxyimino)piperidin-1-yl]-4-[(methylamino)carbonyl]-1,3-thiazole-5-carboxylic acid] displayed an IC50 of less than 9.77 nM.
On to `COCCn1ccnc1-c1nc(N2CCC(NC(=O)c3[nH]c(C)c(Cl)c3Cl)/C(=N/OC)C2)sc1C(=O)O` (stereo not drawn) [Example 27, 2-[(3E)-4-{[(3,4-Dichloro-5-methyl-1H-pyrrol-2-yl)carbonyl]amino}-3-(methoxyimino)piperidin-1-yl]-4-[1-(2-methoxyethyl)-1H-imidazol-2-yl]-1,3-thiazole-5-carboxylic acid], for which the IC50 was less than 63.5 nM.
To `COCn1ccnc1-c1nc(N2CCC(NC(=O)c3[nH]c(C)c(Cl)c3Cl)/C(=N/OC)C2)sc1C(=O)O` (stereo not drawn) [Example 28, 2-[(3E)-4-{[(3,4-Dichloro-5-methyl-1H-pyrrol-2-yl)carbonyl]amino}-3-(methoxyimino)piperidin-1-yl]-4-[1-(methoxymethyl)-1H-imidazol-2-yl]-1,3-thiazole-5-carboxylic acid] belongs less than 9.77 nM; to `CO/N=C1\CN(c2nc(-c3ncc[nH]3)c(C(=O)O)s2)CCC1NC(=O)c1[nH]c(C)c(Cl)c1Cl` (stereo not drawn) [Example 29, 2-[(3E)-4-{[(3,4-Dichloro-5-methyl-1H-pyrrol-2-yl)carbonyl]amino}-3-(methoxyimino)piperidin-1-yl]-4-(1H-imidazol-2-yl)-1,3-thiazole-5-carboxylic acid], less than 9.77 nM; to `C=CCOC(=O)c1sc(N2CCC(NC(=O)c3[nH]c(C)c(Cl)c3Cl)/C(=N/OC)C2)nc1C(=O)NCCOC` (stereo not drawn) [Example 30, Allyl 2-[(3E)-4-{[(3,4-dichloro-5-methyl-1H-pyrrol-2-yl)carbonyl]amino}-3-(methoxyimino)piperidin-1-yl]-4-{[(2-methoxyethyl)amino]carbonyl}-1,3-thiazole-5-carboxylate], 86.1 nM.
`CNC(=O)c1nc(N2CCC(NC(=O)c3[nH]c(C)c(Cl)c3Cl)/C(=N/OC)C2)sc1C(=O)OC` (stereo not drawn) [Example 31, Methyl 2-[(3E)-4-{[(3,4-dichloro-5-methyl-1H-pyrrol-2-yl)carbonyl]amino}-3-(methoxyimino)piperidin-1-yl]-4-[(methylamino)carbonyl]-1,3-thiazole-5-carboxylate] displayed an IC50 of 49.4 nM.
